Data published in patent US7919464B2, “Use of a peptide that interacts with αvβ3 integrin of endothelial cell” (Kyungpook National University Industry-Academic Cooperation …, priority 2003, dated 2011).
Ends that are not written are not given here.

B1: ΔH1H2(6): smallest deletion mutant fragment, amino acids 548-614 of SEQ ID NO: 1, SEQ ID NO: 10 (protein, listed as Homo sapiens)
chain: RALPPRERSRLLGDAKELANILKYHIGDEILVSGGIGALVRLKSLQGDKLEVSLKNNVVSVNKEPVA

Tests used:
HUVECs [1] = assay: HUVECs adhesion to plates coated with βig-h3, its fas-1 domains or mutants; type: cell-based, human; conditions: 10 μg/ml protein coated on plate; attached cells by absorbance at 405 nm; control BSA
Procedure: Cell adhesion assay was performed according to the method described by Kim, J.-E. et al., J. Biol. Chem., 277:4615946165, 2002. For this purpose, 10 μg/ml of each of the recombinant proteins (βig-h3 His-β-b, βig-h3 D-I, βig-h3 D-II, βig-h3 D-III and βig-h3 D-IV) prepared in Example 1 was placed into a flat-bottomed 96-well ELISA (enzyme-linked immunosorbent assay) plate (Costar, Corning Inc., NY) and then incubated overnight at 4° C., to coat the surface of the plate. As a control, 2% BSA was coated on the plate. Then, the plate was treated with PBS (phosphate-buffered saline) containing 2% BSA, and blocked at room temperature for one hour.
Meanwhile, HUVECs (human umbilical vein endothelial cells; Clonetics, San Diego, Calif.) were incubated in EGM medium (Clonetics, San Diego, Calif.) containing 2% FBS (Fetal Bovine Serum) under a condition of 37° C. and 5% CO2. The incubated cells were suspended in medium at a density of 3×10^5 cells/ml, and 0.1 ml of the cell suspension was added to each well of the plate. Next, the cells were incubated at 37° C. for 30 minutes and washed one time with PBS buffer to remove cells which had not been attached to the plate. Attached cells were added with 50 mM citrate buffer (pH 5.0) containing 3.75 mM p-nitrophenyl-N-acetyl β-D-glycosaminide and 0.25% Triton X-100, and incubated at 37° C. for one hour. Thereafter, 50 mM glycine buffer (pH 10.4) containing 5 mM EDTA was added to block the activity of the enzyme. The absorbance was measured at a 405-nm in a Bio-Rad model 550 microplate reader. Here, the higher the number of cells adhered to the plate, the higher the absorbance.
Each of the deletion mutants was generated by PCR using a cDNA template encoding the fourth fas-1 domain (SEQ ID NO: 5) (Kim, J.-E. et al., J. Biol. Chem., 275:30907-30915, 2000). Each of the PCR-amplified DNA fragments was cloned into the EcoRV/Xhol sites of the pET-29b(+) vector (Novagen; Madison, Wis.). The mutations were confirmed by sequence analysis, and the deletion mutants were expressed and purified according to a prior method (Kim, J.-E., et al., J. Cell. Biochem., 77:169-178, 2000). Thereafter, the cell adhesion activity of each of the deletion mutants was tested in the same manner as in Example 2.
Previously, the present inventors reported that an YH motif, which contains tyrosine-histidine residues highly conserved in the fragment corresponding to amino acids 548-614 of SEQ ID NO: 1, and several leucine and isoleucine residues adjacent to the tyrosine-histidine residues, binds to the αvβ5 integrin (Kim, J.-E., et al., J. Biol. Chem., 277:46159-46165, 2002). Thus, the present inventors suspected that the YH motif may also interact with the αvβ3 integrin to mediate endothelial cell adhesion. For this reason, in the present invention, the tyrosine-histidine residues conserved in the fas-1 domains, and/or the leucine and isolucine residues adjacent to the tyrosine-histidine residues, were substituted in various combinations by alanine or serine (Kim, J.-E., et al., J. Biol. Chem. 277:4615946165, 2002)(see FIG. 4b). The amino acid sequences of the prepared YH motif mutants are shown in SEQ ID NO: 17 to SEQ ID NO: 22. The mutations were confirmed by sequence analysis. Then, the substitution mutants were expressed and purified according to a known method (Kim, J.-E., et al., J. Cell. Biochem., 77:169-178, 2000). The substitution mutants were tested for their cell adhesion activity according to the same manner as in Example 2.

C57/BL6 mice = assay: In vivo Matrigel plug assay; conditions: subcutaneous, 7 days
Procedure: In the present invention, the angiogenesis-inhibitory effect of the YH18 synthetic peptide, which had been proven in vitro assay according to Example 8-1, was assayed in vivo. An in vivo Matrigel plug assay was performed according to the method described by Maeshima, Y. et al., J. Biol. Chem., 275:23745-23750, 2000. 5-6 week old male C57/BL6 mice purchased from Hyochang scientific company, Korea, were used.
First, Matrigel (BD Biosciences, MA) was mixed with 20 units/ml heparin, 150 ng/ml bFGF (basic fibroblast growth factor, R&D system, International, Inc), and a YH18 synthetic peptide represented by SEQ ID NO: 26. As a control to the YH18 synthetic peptide, an YH18-con. peptide was used, and a control to peptide treatment was treated with 5% DMSO (solvent). The Matrigel mixture was injected subcutaneously to the C57/BL6 mice. After 7 days, the mice were sacrificed, and the Matrigel plugs were removed and fixed in 4% paraformaldehyde. The Matrigel plugs were buried in paraffin, sectioned and stained with H&E. Their sections were examined by light microscope, the number of blood vessels from 4-6 HPF (high power fields; ×200) was counted and averaged. Each group consisted of 3 or 4 Matrigel plugs.

HUVECs [2] = assay: HUVECs migration assay in transwell plate coated with βig-h3; type: cell-based, human; conditions: 500 μM or 1 mM peptide of SEQ ID NO: 26
Procedure: Firstly, to examine whether βig-h3 is involved in the migration of endothelial cells, the present inventors performed cell migration assay. The cell migration assay was performed in a transwell plate (8 μm pore size, Costar, Cambridge, Mass.). The undersurface of the membrane was coated with the recombinant βig-h3 His-β-b protein (10 μg/ml) prepared in Example 1 at 4° C., and then, blocked for 1 hour at room temperature with PBS buffer containing 2% BSA. Meanwhile, HUVECs were added with an anti-αvβ3 antibody (LM609) or an anti-αvβ5 antibody (P1F6) and preincubated at 37° C. for 30 minutes. A control was added with mouse IgG. Then, the HUVECs preincubated with the antibody were suspended in medium at a density of 3×10^5 cells/ml, and 0.1 ml of the cell suspension was added to the upper compartment of the filter. The cells were allowed to migrate at 37° C. for 6-8 hours.
Migration was terminated by removing the cells from the upper compartment of the filter with a cotton swab. The filters were fixed with 8% glutaraldehyde and stained with crystal violet. The extent of cell migration was determined by light microscope, and within each well, cell counting was done in nine randomly selected fields HPF (Microscopic high power fields, ×200).
Then, the present inventors examined whether the migration of endothelial cells is inhibited by the YH18 synthetic peptide. […]

HUVECs [3] = test system: HUVECs
Procedure: First, 100 μl of Matrigel (Chemicon, International Inc, Temecula, Calif.) was added to each well of a 96-well plate and allowed to polymerize. HUVECs were suspended in medium at a density of 3×10^5 cells/ml, and 0.1 ml of the cell suspension was added to each well of the well plate coated with Matrigel. At this time, 500 μM or 1 mM of the YH18 synthetic peptide represented by SEQ ID NO: 26 was added together. A control to peptide treatment was treated with 5% DMSO (solvent), and a control to the YH18 synthetic peptide was treated with the YH18-con. peptide represented by SEQ ID NO: 27. Thereafter, the cells were incubated at 37° C. for 16-18 hours. The cells were photographed, and endothelial tubes were counted and averaged.

Molecule	endothelial cell (HUVECs) adhesion activity (HUVECs [1])	further results
D-IV-LAA: D-IV mutant, tyrosine-histidine to alanine-alanine and isoleucine/leucine on one side to serine (GDAKESANSSKAAIGDEILVSGGIGALVR; D-IV-LAA)	somewhat lower than those of D-IV-LAA and D-IV-AAR	–
D-IV-LYHR: D-IV mutant, all isoleucine and leucine residues on both sides of tyrosine-histidine substituted with serine (GDAKESANSSKYHSGDESSVSGGIGALVR; D-IV-LYHR)	reduced to half that of the fas-1 domain	–
D-IV-AAR: D-IV mutant, tyrosine-histidine to alanine-alanine and isoleucine/leucine on one side to serine (GDAKELANILKAASGDESSVSGGIGALVR; D-IV-AAR)	somewhat lower than those of D-IV-LAA and D-IV-AAR	–
D-IV-AA: D-IV mutant, tyrosine-histidine residues substituted with alanine-alanine (GDAKELANILKAAIGDEILVSGGIGALVR)	equal to those of the fas-1 domain (D-IV) and its fragment (H1H2(6))	–
D-IV-R: D-IV mutant, leucine and isoleucine residues adjacent to one side of tyrosine-histidine substituted with serine (GDAKELANILKYHSGDESSVSGGIGALVR; D-IV-R)	equal to those of the fas-1 domain (D-IV) and its fragment (H1H2(6))	–
D-IV-L: D-IV mutant, leucine and isoleucine residues adjacent to one side of tyrosine-histidine substituted with serine (GDAKESANSSKYHIGDEILVSGGIGALVR; D-IV-L)	equal to those of the fas-1 domain (D-IV) and its fragment (H1H2(6))	–
KELANILKYHIGDEILVS [YH18 synthetic peptide]	–	number of blood vessels in Matrigel plug (C57/BL6 mice; 500 μM peptide in Matrigel with bFGF and heparin): significant reduction in the number of blood vessels; inhibition of angiogenesis in Matrigel plug (C57/BL6 mice; 1 mM peptide in Matrigel with bFGF and heparin): complete inhibition of angiogenesis; inhibition of HUVECs migration toward βig-h3 by YH18 synthetic peptide (HUVECs [2]): inhibited the migration of endothelial cells toward βig-h3; IC50 (HUVECs [3]): 500 µM; inhibition of HUVECs tube formation (HUVECs [3]; 500 μM or 1 mM peptide, dose-dependent): selectively inhibited
B1	still retains endothelial cell adhesion activity	–
